Our source for the IC50 values is US10011586B2, “Heterocyclic compound, method for preparing the same, and pharmaceutical composition comprising the same” (Daewoong Pharmaceutical Co., Ltd., priority 2015, dated 2018).

One assay addresses T1, PRS enzyme (Homo sapiens, UniProt P07814).
T1 construct: the portion corresponding to PRS in cDNA of EPRS was subcloned; made in house
T1 sequence (P07814 1007-1512 limits assumed): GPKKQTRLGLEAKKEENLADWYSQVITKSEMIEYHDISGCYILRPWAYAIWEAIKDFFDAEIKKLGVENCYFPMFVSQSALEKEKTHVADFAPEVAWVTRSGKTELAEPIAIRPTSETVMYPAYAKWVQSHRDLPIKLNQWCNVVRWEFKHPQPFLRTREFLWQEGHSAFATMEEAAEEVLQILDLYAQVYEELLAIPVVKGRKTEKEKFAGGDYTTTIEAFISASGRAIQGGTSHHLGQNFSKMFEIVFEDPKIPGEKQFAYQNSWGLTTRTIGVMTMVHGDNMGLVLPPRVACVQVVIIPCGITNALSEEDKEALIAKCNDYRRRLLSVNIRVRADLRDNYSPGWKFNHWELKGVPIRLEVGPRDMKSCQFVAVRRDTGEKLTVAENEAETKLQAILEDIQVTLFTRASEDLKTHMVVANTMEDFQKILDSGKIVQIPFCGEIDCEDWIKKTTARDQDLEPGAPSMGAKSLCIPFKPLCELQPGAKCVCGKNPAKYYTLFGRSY
The assay is described as follows: PRS enzyme activity inhibition experiment. Type of assay: biochemical. Particulars: purified PRS protein subcloned from EPRS cDNA; [3H]proline, 37° C., 5 to 10 minutes, liquid scintillation counter; read-out: PRS IC50. Here is the method: Specifically, the portion corresponding to PRS in cDNA of EPRS was subcloned, and the obtained high-purity PRS protein was purified and used in the experiment. The compounds (1 μM) prepared in Examples were added into the reaction buffer (20 mM KPO4 (pH 7.4), 6 mM MgAc, 5 mM ATP, […] tRNA, 0.5 mM DTT, […][^3H]proline (1 mCi/mL)) and allowed to react at 37° C. for 5 to 10 minutes. The reaction was terminated with 3M paper that was in advance dried by addition of 5% TCA. The radioactivity was measured using a liquid scintillation counter.
% Inhibition and IC50 values of the respective compounds were calculated and analyzed using Microsoft Excel or Sigma Plot 8.0. In Table 1, the results are divided into A, B and C according to the range of IC50.

The next assay concerns NCI-H460 cells. The assay is described as follows: Cancer cell growth inhibition experiment (MTT assay). The format is cell-based. The conditions noted are these: Homo sapiens, lung cancer cell line, compounds 48 hours, cell viability by MTT assay. As to the method:
NCl-H460 cells, lung cancer cell lines, were cultured in 5% CO2, 37° C. incubator using a flask for 75 cm^2 tissue culture. 96-well plates were used for the evaluation. These were prepared by differently applying at concentrations in the range of 6,000 to 12,000 cells/well according to the growth rate of the cell lines. The medium containing 5% FBS were dispensed in 200 μL/well and used. The medium were cultured for 24 hours. After confirming the cell status and dispensing form of a 96-well plate under a microscope, they were used for subsequent experiments. The compounds were evaluated at concentrations of 100, 30, 10, 3, 1, 0.3, 0.03, 0.01 μM. After removing the existing medium, the compounds with various concentrations were treated in an amount of 200 μL/well. The compounds-treated plates were further cultured for 48 hours, and the cell viabilities were measured by MTT assay to calculate IC50 values.
% Inhibition and IC50 values of the respective compounds were calculated and analyzed using Sigma Plot 8.0. In Table 2, the results are divided into A, B and C according to the range of IC50. The case where the derived IC50 is 3 μM or less is represented by “A”, the case where the IC50 is 3 to 10 μM is represented by “B”, and the case where the IC50 is 10 μM or higher is represented by “C”.

Where only a bound is given, the exact number is not on record here.

The term IC50 denotes the concentration needed to halve the response being measured. `COc1cccc(-c2ccc3c(ncn3CC(=O)C[C@H]3NCCC[C@@H]3O)c2C)c1` [Example 22, 1-((2R,3S)-3-hydroxypiperidin-2-yl)-3-(5-(3-methoxyphenyl)-4-methyl-1H-benzo[d]imidazol-1-yl)propan-2-one]: the IC50 was above 500 nM on PRS enzyme and at least 10 µM with NCI-H460 cells.

Consider `Cc1c(-c2cscn2)ccc2c1ncn2CC(=O)C[C@H]1NCCC[C@@H]1O` [Example 23, 1-((2R,3S)-3-hydroxypiperidin-2-yl)-3-(4-methyl-5-(thiazol-4-yl)-1H-benzo[d]imidazol-1-yl)propan-2-one], for which the IC50 at PRS enzyme was below 100 nM; with NCI-H460 cells, at least 10 µM.

For the molecule `O=C(C[C@H]1NCCC[C@@H]1O)Cn1cnc2ccc(-c3ccccc3)cc21` [Example 24, 1-((2R,3S)-3-hydroxypiperidin-2-yl)-3-(6-phenyl-1H-benzo[d]imidazol-1-yl)propan-2-one], the IC50 is below 100 nM at PRS enzyme and 3 to 10 µM with NCI-H460 cells.

`O=C(C[C@H]1NCCC[C@@H]1O)Cn1cnc2ccc(-c3cccc(F)c3)cc21` [Example 25, 1-(6-(3-fluorophenyl)-1H-benzo[d]imidazol-1-yl)-3-((2R,3S)-3-hydroxypiperidin-2-yl)propan-2-one]: the IC50 on PRS enzyme was below 100 nM; in the assay on NCI-H460 cells it was at most 3 µM.

`O=C(C[C@H]1NCCC[C@@H]1O)Cn1cnc2ccc(-c3ccccc3Cl)cc21` [Example 26, 1-(6-(2-chlorophenyl)-1H-benzo[d]imidazol-1-yl)-3-((2R,3S)-3-hydroxypiperidin-2-yl)propan-2-one]: the figures for the IC50 at PRS enzyme and in the assay on NCI-H460 cells were below 100 nM and 3 to 10 µM, respectively.

`O=C(C[C@H]1NCCC[C@@H]1O)Cn1cnc2ccc(-c3cccc(Cl)c3)cc21` [Example 27, 1-(6-(3-chlorophenyl)-1H-benzo[d]imidazol-1-yl)-3-((2R,3S)-3-hydroxypiperidin-2-yl)propan-2-one]: the IC50 was below 100 nM on PRS enzyme and at most 3 µM in the assay with NCI-H460 cells.

Consider `O=C(C[C@H]1NCCC[C@@H]1O)Cn1cnc2ccc(-c3ccc(Cl)cc3)cc21` [Example 28, 1-(6-(4-chlorophenyl)-1H-benzo[d]imidazol-1-yl)-3-((2R,3S)-3-hydroxypiperidin-2-yl)propan-2-one], for which the IC50 was below 100 nM at PRS enzyme and 3 to 10 µM in the assay on NCI-H460 cells.

Consider `O=C(C[C@H]1NCCC[C@@H]1O)Cn1cnc2ccc(-c3cccc(C(F)(F)F)c3)cc21` [Example 29, 1-((2R,3S)-3-hydroxypiperidin-2-yl)-3-(6-(3-(trifluoromethyl)phenyl)-1H-benzo[d]imidazol-1-yl)propan-2-one], for which the IC50 on PRS enzyme was below 100 nM; in the assay on NCI-H460 cells, at most 3 µM.

For the molecule `Cc1cccc(-c2ccc3ncn(CC(=O)C[C@H]4NCCC[C@@H]4O)c3c2)c1` [Example 30, 1-((2R,3S)-3-hydroxypiperidin-2-yl)-3-(6-(m-tolyl)-1H-benzo[d]imidazol-1-yl)propan-2-one], the IC50 at PRS enzyme is below 100 nM; in the assay with NCI-H460 cells it was 3 to 10 µM.

With `O=C(C[C@H]1NCCC[C@@H]1O)Cn1cnc2ccc(-c3cc(Cl)cc(Cl)c3)cc21` [Example 31, 1-(6-(3,5-dichlorophenyl)-1H-benzo[d]imidazol-1-yl)-3-((2R,3S)-3-hydroxypiperidin-2-yl)propan-2-one], the IC50 is below 100 nM on PRS enzyme and 3 to 10 µM in the assay on NCI-H460 cells.

For the molecule `O=C(C[C@H]1NCCC[C@@H]1O)Cn1cnc2ccc(-c3cc(F)cc(Cl)c3)cc21` [Example 32, 1-(6-(3-chloro-5-fluorophenyl)-1H-benzo[d]imidazol-1-yl)-3-((2R,3S)-3-hydroxypiperidin-2-yl)propan-2-one], the IC50 at PRS enzyme was below 100 nM; with NCI-H460 cells, at most 3 µM.

Regarding `O=C(C[C@H]1NCCC[C@@H]1O)Cn1cnc2ccc(-c3ccc(F)c(Cl)c3)cc21` [Example 33, 1-(6-(3-chloro-4-fluorophenyl)-1H-benzo[d]imidazol-1-yl)-3-((2R,3S)-3-hydroxypiperidin-2-yl)propan-2-one], the IC50 on PRS enzyme is below 100 nM; in the assay on NCI-H460 cells it was 3 to 10 µM.

For `Cc1cc(Cl)cc(-c2ccc3ncn(CC(=O)C[C@H]4NCCC[C@@H]4O)c3c2)c1` [Example 34, 1-(6-(3-chloro-5-methylphenyl)-1H-benzo[d]imidazol-1-yl)-3-((2R,3S)-3-hydroxypiperidin-2-yl)propan-2-one], the IC50 is below 100 nM on PRS enzyme and 3 to 10 µM with NCI-H460 cells.

`COc1cc(Cl)cc(-c2ccc3ncn(CC(=O)C[C@H]4NCCC[C@@H]4O)c3c2)c1` [Example 35, 1-(6-(3-chloro-5-methoxyphenyl)-1H-benzo[d]imidazol-1-yl)-3-((2R,3S)-3-hydroxypiperidin-2-yl)propan-2-one]: the results for the IC50 on PRS enzyme and with NCI-H460 cells were below 100 nM and 3 to 10 µM, respectively.

`N#Cc1cc(Cl)cc(-c2ccc3ncn(CC(=O)C[C@H]4NCCC[C@@H]4O)c3c2)c1` [Example 36, 3-chloro-5-(1-(3-((2R,3S)-3-hydroxypiperidin-2-yl)-2-oxopropyl)-1H-benzo[d]imidazol-6-yl)benzonitrile]: the IC50 is below 100 nM at PRS enzyme and 3 to 10 µM in the assay with NCI-H460 cells.

For `O=C(C[C@H]1NCCC[C@@H]1O)Cn1cnc2ccc(-c3cn[nH]c3)cc21` [Example 37, 1-(6-(1H-pyrazol-4-yl)-1H-benzo[d]imidazol-1-yl)-3-((2R,3S)-3-hydroxypiperidin-2-yl)propan-2-one], the figures for the IC50 on PRS enzyme and in the assay with NCI-H460 cells were below 100 nM and at least 10 µM, respectively.

As to `O=C(C[C@H]1NCCC[C@@H]1O)Cn1cnc2ccc(-c3cc[nH]n3)cc21` [Example 38, 1-(6-(1H-pyrazol-3-yl)-1H-benzo[d]imidazol-1-yl)-3-((2R,3S)-3-hydroxypiperidin-2-yl)propan-2-one], the IC50 on PRS enzyme is 100 to 500 nM; with NCI-H460 cells it was at least 10 µM.

As to `O=C(C[C@H]1NCCC[C@@H]1O)Cn1cnc2ccc(-c3cscn3)cc21` [Example 39, 1-((2R,3S)-3-hydroxypiperidin-2-yl)-3-(6-(thiazol-4-yl)-1H-benzo[d]imidazol-1-yl)propan-2-one], the results for the IC50 on PRS enzyme and with NCI-H460 cells were 100 to 500 nM and at least 10 µM, respectively.

On to `O=C(C[C@H]1NCCC[C@@H]1O)Cn1cnc2ccc(-c3ccc(=O)[nH]c3)cc21` [Example 40, 5-(1-(3-((2R,3S)-3-hydroxypiperidin-2-yl)-2-oxopropyl)-1H-benzo[d]imidazol-6-yl)pyridin-2(1H)-one], for which the IC50 at PRS enzyme is above 500 nM; in the assay on NCI-H460 cells it was at least 10 µM.

Regarding `O=C(C[C@H]1NCCC[C@@H]1O)Cn1cnc2ncc(-c3cccc(Cl)c3)cc21` [Example 41, 1-(6-(3-chlorophenyl)-1H-imidazo[4,5-b]pyridin-1-yl)-3-((2R,3S)-3-hydroxypiperidin-2-yl)propan-2-one], the IC50 at PRS enzyme was below 100 nM; in the assay on NCI-H460 cells it was at least 10 µM.

As to `O=C(C[C@H]1NCCC[C@@H]1O)Cn1cnc2ccc(-c3ccccc3F)nc21` [Example 43, 1-(5-(2-fluorophenyl)-3H-imidazo[4,5-b]pyridin-3-yl)-3-((2R,3S)-3-hydroxypiperidin-2-yl)propan-2-one], the IC50 on PRS enzyme is 100 to 500 nM; with NCI-H460 cells it was at most 3 µM.

Turning to `O=C(C[C@H]1NCCC[C@@H]1O)Cn1cnc2ccc(-c3cccc(F)c3)nc21` [Example 44, 1-(5-(3-fluorophenyl)-3H-imidazo[4,5-b]pyridin-3-yl)-3-((2R,3S)-3-hydroxypiperidin-2-yl)propan-2-one], the IC50 on PRS enzyme is below 100 nM; with NCI-H460 cells, at most 3 µM.

As to `O=C(C[C@H]1NCCC[C@@H]1O)Cn1cnc2ccc(-c3ccc(F)cc3)nc21` [Example 45, 1-(5-(4-fluorophenyl)-3H-imidazo[4,5-b]pyridin-3-yl)-3-((2R,3S)-3-hydroxypiperidin-2-yl)propan-2-one], the IC50 is below 100 nM at PRS enzyme and 3 to 10 µM in the assay with NCI-H460 cells.

Turning to `O=C(C[C@H]1NCCC[C@@H]1O)Cn1cnc2ccc(-c3cccc(Cl)c3)nc21` [Example 46, 1-(5-(3-chlorophenyl)-3H-imidazo[4,5-b]pyridin-3-yl)-3-((2R,3S)-3-hydroxypiperidin-2-yl)propan-2-one], the values for the IC50 at PRS enzyme and in the assay with NCI-H460 cells were below 100 nM and at most 3 µM, respectively.
